Experimental data taken from ChEMBL document CHEMBL3885881, “DrugMatrix”.

Species: Rattus norvegicus
Test: DrugMatrix - Regimen: Daily Repeat
Assay type: toxicity, organism-based, Sprague-Dawley
Set-up: regimen Daily Repeat, gender Male, age 6-8 weeks
Details: in vivo, po, route oral GAVAGE, vehicle .5 % CMC; for ABSOLUTE BASOPHIL / ABSOLUTE EOSINOPHIL / ABSOLUTE LYMPHOCYTE / ABSOLUTE MONOCYTE / ABSOLUTE SEGMENTED NEUTROPHIL / BASOPHIL / EOSINOPHIL / ERYTHROCYTE COUNT / HEMATOCRIT / HEMOGLOBIN / LEUKOCYTE COUNT / LYMPHOCYTE / MEAN CORPUSCULAR HEMOGLOBIN / MEAN CORPUSCULAR HEMOGLOBIN CONCENTRATION / MEAN CORPUSCULAR VOLUME / MONOCYTE / NEUTROPHIL / NUCLEATED RED BLOOD CELLS / PLATELET COUNT: tissue Blood; for ALANINE AMINOTRANSFERASE / ALBUMIN / ALKALINE PHOSPHATASE / ASPARTATE AMINOTRANSFERASE / BLOOD UREA NITROGEN / CARBON DIOXIDE / CHLORIDE / CHOLESTEROL / CREATINE PHOSPHOKINASE / CREATININE / GLUCOSE / LACTATE DEHYDROGENASE / LIPASE / PHOSPHORUS / POTASSIUM / SODIUM / TOTAL BILIRUBIN / TOTAL PROTEIN / URIC ACID: tissue Plasma
[1] = 60 mg/kg, 72 h, dose level Low, time 3 day
[2] = 60 mg/kg, 120 h, dose level Low, time 5 day
[3] = 1200 mg/kg, 72 h, dose level High, time 3 day
[4] = 1200 mg/kg, 120 h, dose level High, time 5 day

CCS(=O)(=O)CCn1c([N+](=O)[O-])cnc1C [TINIDAZOLE]
ABSOLUTE BASOPHIL [1]: 0 CELLS/uL | ABSOLUTE EOSINOPHIL [1]: 339 CELLS/uL | ABSOLUTE LYMPHOCYTE [1]: 11000.67 CELLS/uL | ABSOLUTE MONOCYTE [1]: 171.33 CELLS/uL | ABSOLUTE SEGMENTED NEUTROPHIL [1]: 989 CELLS/uL | BASOPHIL [1]: 0% | EOSINOPHIL [1]: 2.67% | ERYTHROCYTE COUNT [1]: 5.79 x10E6/uL | HEMATOCRIT [1]: 34.93% | HEMOGLOBIN [1]: 13.13 G/DL | LEUKOCYTE COUNT [1]: 12.5 x10E3/uL | LYMPHOCYTE [1]: 88% | MEAN CORPUSCULAR HEMOGLOBIN [1]: 22.67 pg | MEAN CORPUSCULAR HEMOGLOBIN CONCENTRATION [1]: 37.67 G/DL | MEAN CORPUSCULAR VOLUME [1]: 60.2 fL | MONOCYTE [1]: 1.33% | NEUTROPHIL [1]: 8% | NUCLEATED RED BLOOD CELLS [1]: 0 /100WBC | PLATELET COUNT [1]: 1415.67 x10E3/uL | ALANINE AMINOTRANSFERASE [1]: 51.33 u/L | ALBUMIN [1]: 4.33 G/DL | ALKALINE PHOSPHATASE [1]: 361.33 u/L | ASPARTATE AMINOTRANSFERASE [1]: 96.67 u/L | BLOOD UREA NITROGEN [1]: 14.67 mg/dL | CARBON DIOXIDE [1]: 26 mmol/L | CHLORIDE [1]: 105 MEQ/L | CHOLESTEROL [1]: 71 mg/dL | CREATINE PHOSPHOKINASE [1]: 896 u/L | CREATININE [1]: 0.17 mg/dL | GLUCOSE [1]: 168 mg/dL | LACTATE DEHYDROGENASE [1]: 108.33 u/L | LIPASE [1]: 9 u/L | PHOSPHORUS [1]: 14.2 mg/dL | POTASSIUM [1]: 6.01 MEQ/L | SODIUM [1]: 145.6 MEQ/L | TOTAL BILIRUBIN [1]: 0.23 mg/dL | TOTAL PROTEIN [1]: 5.87 G/DL | URIC ACID [1]: 2.47 mg/dL | ABSOLUTE BASOPHIL [2]: 0 CELLS/uL | ABSOLUTE EOSINOPHIL [2]: 103.33 CELLS/uL | ABSOLUTE LYMPHOCYTE [2]: 13904.67 CELLS/uL | ABSOLUTE MONOCYTE [2]: 205.33 CELLS/uL | ABSOLUTE SEGMENTED NEUTROPHIL [2]: 1020 CELLS/uL | BASOPHIL [2]: 0% | EOSINOPHIL [2]: 0.67% | ERYTHROCYTE COUNT [2]: 5.73 x10E6/uL | HEMATOCRIT [2]: 35.5% | HEMOGLOBIN [2]: 13.43 G/DL | LEUKOCYTE COUNT [2]: 15.23 x10E3/uL | LYMPHOCYTE [2]: 91.33% | MEAN CORPUSCULAR HEMOGLOBIN [2]: 23.43 pg | MEAN CORPUSCULAR HEMOGLOBIN CONCENTRATION [2]: 37.83 G/DL | MEAN CORPUSCULAR VOLUME [2]: 61.97 fL | MONOCYTE [2]: 1.33% | NEUTROPHIL [2]: 6.67% | NUCLEATED RED BLOOD CELLS [2]: 0.33 /100WBC | PLATELET COUNT [2]: 1361.67 x10E3/uL | ALANINE AMINOTRANSFERASE [2]: 48 u/L | ALBUMIN [2]: 4.23 G/DL | ALKALINE PHOSPHATASE [2]: 407 u/L | ASPARTATE AMINOTRANSFERASE [2]: 87 u/L | BLOOD UREA NITROGEN [2]: 18 mg/dL | CARBON DIOXIDE [2]: 26.33 mmol/L | CHLORIDE [2]: 107 MEQ/L | CHOLESTEROL [2]: 76.33 mg/dL | CREATINE PHOSPHOKINASE [2]: 445.33 u/L | CREATININE [2]: 0.21 mg/dL | GLUCOSE [2]: 165.33 mg/dL | LACTATE DEHYDROGENASE [2]: 155 u/L | LIPASE [2]: 9 u/L | PHOSPHORUS [2]: 13.63 mg/dL | POTASSIUM [2]: 6.07 MEQ/L | SODIUM [2]: 145.9 MEQ/L | TOTAL BILIRUBIN [2]: 0.17 mg/dL | TOTAL PROTEIN [2]: 6.5 G/DL | URIC ACID [2]: 2.07 mg/dL | ABSOLUTE BASOPHIL [3]: 0 CELLS/uL | ABSOLUTE EOSINOPHIL [3]: 0 CELLS/uL | ABSOLUTE LYMPHOCYTE [3]: 8834.67 CELLS/uL | ABSOLUTE MONOCYTE [3]: 232.67 CELLS/uL | ABSOLUTE SEGMENTED NEUTROPHIL [3]: 799.33 CELLS/uL | BASOPHIL [3]: 0% | EOSINOPHIL [3]: 0% | ERYTHROCYTE COUNT [3]: 5.53 x10E6/uL | HEMATOCRIT [3]: 35.63% | HEMOGLOBIN [3]: 13.37 G/DL | LEUKOCYTE COUNT [3]: 9.87 x10E3/uL | LYMPHOCYTE [3]: 89.67% | MEAN CORPUSCULAR HEMOGLOBIN [3]: 24.17 pg | MEAN CORPUSCULAR HEMOGLOBIN CONCENTRATION [3]: 37.57 G/DL | MEAN CORPUSCULAR VOLUME [3]: 64.4 fL | MONOCYTE [3]: 2.33% | NEUTROPHIL [3]: 8% | NUCLEATED RED BLOOD CELLS [3]: 0 /100WBC | PLATELET COUNT [3]: 1043.67 x10E3/uL | ALANINE AMINOTRANSFERASE [3]: 47 u/L | ALBUMIN [3]: 4.5 G/DL | ALKALINE PHOSPHATASE [3]: 362.67 u/L | ASPARTATE AMINOTRANSFERASE [3]: 80.33 u/L | BLOOD UREA NITROGEN [3]: 15.33 mg/dL | CARBON DIOXIDE [3]: 28 mmol/L | CHLORIDE [3]: 106 MEQ/L | CHOLESTEROL [3]: 89.33 mg/dL | CREATINE PHOSPHOKINASE [3]: 226.67 u/L | CREATININE [3]: 0.24 mg/dL | GLUCOSE [3]: 123 mg/dL | LACTATE DEHYDROGENASE [3]: 186 u/L | LIPASE [3]: 9.33 u/L | PHOSPHORUS [3]: 11.47 mg/dL | POTASSIUM [3]: 6.78 MEQ/L | SODIUM [3]: 150.07 MEQ/L | TOTAL BILIRUBIN [3]: 0.3 mg/dL | TOTAL PROTEIN [3]: 6.13 G/DL | URIC ACID [3]: 1 mg/dL | ABSOLUTE BASOPHIL [4]: 0 CELLS/uL | ABSOLUTE EOSINOPHIL [4]: 57.67 CELLS/uL | ABSOLUTE LYMPHOCYTE [4]: 15287.67 CELLS/uL | ABSOLUTE MONOCYTE [4]: 50.33 CELLS/uL | ABSOLUTE SEGMENTED NEUTROPHIL [4]: 2437.67 CELLS/uL | BASOPHIL [4]: 0% | EOSINOPHIL [4]: 0.33% | ERYTHROCYTE COUNT [4]: 5.86 x10E6/uL | HEMATOCRIT [4]: 35.6% | HEMOGLOBIN [4]: 13.2 G/DL | LEUKOCYTE COUNT [4]: 17.83 x10E3/uL | LYMPHOCYTE [4]: 85% | MEAN CORPUSCULAR HEMOGLOBIN [4]: 22.53 pg | MEAN CORPUSCULAR HEMOGLOBIN CONCENTRATION [4]: 37.07 G/DL | MEAN CORPUSCULAR VOLUME [4]: 60.8 fL | MONOCYTE [4]: 0.33% | NEUTROPHIL [4]: 14.33% | NUCLEATED RED BLOOD CELLS [4]: 0 /100WBC | PLATELET COUNT [4]: 1437 x10E3/uL | ALANINE AMINOTRANSFERASE [4]: 43.33 u/L | ALBUMIN [4]: 4.3 G/DL | ALKALINE PHOSPHATASE [4]: 276.33 u/L | ASPARTATE AMINOTRANSFERASE [4]: 79.67 u/L | BLOOD UREA NITROGEN [4]: 19.33 mg/dL | CARBON DIOXIDE [4]: 25 mmol/L | CHLORIDE [4]: 105 MEQ/L | CHOLESTEROL [4]: 76.67 mg/dL | CREATINE PHOSPHOKINASE [4]: 212.67 u/L | CREATININE [4]: 0.29 mg/dL | GLUCOSE [4]: 152 mg/dL | LACTATE DEHYDROGENASE [4]: 226.67 u/L | LIPASE [4]: 8.67 u/L | PHOSPHORUS [4]: 12.57 mg/dL | POTASSIUM [4]: 6.85 MEQ/L | SODIUM [4]: 146.2 MEQ/L | TOTAL BILIRUBIN [4]: 0.13 mg/dL | TOTAL PROTEIN [4]: 6.7 G/DL | URIC ACID [4]: 2.17 mg/dL
